Measured values published in patent US20220267270A1, “STING MODULATORS, COMPOSITIONS, AND METHODS OF USE” (University of South Florida, priority 2019, published 2022).

How the values were obtained:
[1] = biological target: His-tagged human STING CDN domain (Homo sapiens, UniProt Q86WV6); assay: Surface Plasmon Resonance (SPR) binding; details: steady state
Experimental: SPR was employed for binding measurements using His-tagged human STING CDN domain. A GE Healthcare Biacore T200 was equipped with an Ni-NTA chip. […] The sensorgrams were analyzed using Biacore T200 Software 3.0 (GE Healthcare) and steady state was measured at 4 sec before injection stop, exported into Graphpad, and fit vs concentration using a one site specific binding model to calculate the apparent equilibrium dissociation constant (KD). Where appropriate, kinetics were measured using a 1:1 Langmuir binding model with Rmax set to local to obtain the association rate (Kon), dissociation (Koff), and the KD.

[2] = biological target: His-labeled STING (hSTING) (Homo sapiens, UniProt Q86WV6); assay: Microscale thermophoresis (MST) binding assay; details: for direct binding to hSTING by MST: FIG. 4
Experimental: Nanotemper Monolith NT.115 labeled thermophoresis machine was used with standard treated capillary tubes using samples comprised of labeled protein and titrations of small molecule in 1×PBS. […] Detection of the protein was performed using the blue detection channel with LED excitation power set to 90% and MST set to high allowing 3 s prior to MST on to check for initial fluorescence differences, 25 s for thermophoresis, and 3 s for regeneration after MST off.

hSTING = hSTING (Homo sapiens, UniProt Q86WV6); details: native ligand, literature ITC value used for model validation; read-out: ITC binding energetics (KD); cited from earlier work
[3] = tested on: STING-induced IRF3 expression; assay: Competition of 335504 with agonist 2,3-cGAMP in THP-1 cells; assay type: cell-based, human
Source text: FIG. 6 depicts the effect of various concentrations of 335504 and known agonist 2,3-cGAMP on luminescence measured from THP-1 monocytic leukemia cells. […] This effect, however, is not seen at higher concentrations due to the synergistic effect of the compounds on the IFN-β signaling pathway in these cells.

[4] = tested on: STING pathway (interferon stimulated genes, IRF3 promoter); assay: Luciferase reporter assay in THP1-ISG-Lucia cells
Experimental: To maintain selection pressure, 10 μg/ml of blasticidin and 100 μg/ml of Zeocin™ was added to the growth medium every other passage.
For compounds, 10 mM stock solution in 100% DMSO was diluted 1:4 with ultrapure Milli Q water. For the positive control, 1 mM stock solution in 100% Milli Q H2O was diluted 3:1 with water. 50 μL of QUANTI-Luc™ luminesence assay reagent (Invivogen) was added after 18-24 h incubation period. Expression of Lucia luciferase was quantified by measuring luminescence from duplicate treatments. Data illustrated were average luminescence changes shown relative to DMSO-treated cells.
For compounds, 10 mM stock solution in 100% DMSO was diluted 1:4 with ultrapure Milli Q water. For the positive control, 1 mM stock solution in 100% Milli Q H2O was diluted 3:1 with water. 50 μL of QUANTI-Luc™ luminesence assay reagent (Invivogen, San Diego, Calif., USA) was added after 18-24 h incubation period. Expression of Lucia luciferase was quantified by measuring luminescence from duplicate treatments. Data illustrated are average luminescence changes shown relative to DMSO-treated cells. A Glowmax luminometer (Promega, Madison, Wis., USA) was used. QUANTI-Luc™ was prepared following the manufacturer's instructions. 10 μl of THP1-Dual™ KI-hSTING-R232 cell culture supernatant was pipetted into each well in a 96-well white (opaque) plate. 50 μl of QUANTI-Luc™ was added to each well. The measurement was then immediately taken using a 4 sec incubation time and integrating over 1 sec.
A luciferase assay utilizing monocytic leukemia THP-1 cells was carried out to determine the upregulation of the IRF3 promoter gene as a downstream indicator of STING pathway activation.
FIG. 4C depicts a plot of luminescence vs. log of concentration of a luciferase assay utilizing monocytic leukemia THP-1 cells that was carried out to determine the regulation of interferon stimulated genes (ISG).

Chain of His-labeled STING (hSTING) (Q86WV6 153-340 H232R limits assumed): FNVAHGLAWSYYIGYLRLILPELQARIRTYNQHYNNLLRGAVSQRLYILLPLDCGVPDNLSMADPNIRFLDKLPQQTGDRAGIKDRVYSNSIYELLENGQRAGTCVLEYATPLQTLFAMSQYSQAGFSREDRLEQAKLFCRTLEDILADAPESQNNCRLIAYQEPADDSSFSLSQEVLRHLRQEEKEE
Chain of His-tagged human STING CDN domain (Q86WV6 153-340 H232R limits assumed): as above
Chain of hSTING (Q86WV6 139-379 H232R limits assumed): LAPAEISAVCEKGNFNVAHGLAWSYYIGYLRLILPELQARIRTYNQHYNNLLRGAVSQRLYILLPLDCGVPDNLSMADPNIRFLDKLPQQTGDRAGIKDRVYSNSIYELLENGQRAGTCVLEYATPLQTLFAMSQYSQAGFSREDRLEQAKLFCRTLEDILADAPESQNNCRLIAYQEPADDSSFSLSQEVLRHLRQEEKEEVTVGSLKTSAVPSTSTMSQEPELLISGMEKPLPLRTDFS

SMILES	Kd [1]	direct binding to hSTING by MST [2]	Kd (hSTING)	Kd ([2]; rough initial estimate of binding affinity)	IC50 ([3]; Homo sapiens, THP-1 monocytic leukemia cells, with agonist 2,3-cGAMP, FIG. 7)	competition with 2,3-cGAMP (luminescence) ([3]; single to double digit concentrations of 335504, FIG. 6)	ISG output (luminescence) vs DMSO blank ([4]; 3 μM, FIG. 2)	effect on cells at higher concentrations ([4]; >20 μM, DMSO percentages increased)	EC50 ([4]; Homo sapiens, THP-1, read-out: luciferase assay EC50)	effect in luciferase assay compared to 2,3-cGAMP ([4]; THP-1 cells)	increase in Luciferase activity compared to the blank ([4]; THP-1 cells, FIG. 4)
Nc1nc2c(ncn2[C@@H]2O[C@@H]3COP(=O)(O)O[C@H]4[C@@H](O)[C@H](n5cnc6c(=O)[nH]c(N)nc65)O[C@@H]4COP(=O)(O)O[C@H]3[C@H]2O)c(=O)[nH]1 [c-di-GMP]	4800 nM	binds but with lesser affinity	1200 nM	–	–	–	–	–	–	–	–
Cc1c(Cl)cccc1Nc1ncccc1C(=O)OCC(O)CO (stereo not shown) [NSC 335504]	430 ± 140 nM	bind to hSTING	–	260 ± 66 nM	~4.8 nM	competition of the compound with 2,3cGAMP can be observed	large increase in ISG output	appeared to cause cell death	29000 ± 1600 nM	significantly lower	50%
